Consider 11 molecules from ChEMBL document CHEMBL4610040, “Addressing hERG activity while maintaining favorable potency, selectivity and pharmacokinetic properties of PPARδ modulators” (Bioorg Med Chem Lett, 2020).

Data set [1] can be described thus: Elimination half life in CD-1 mouse at 1 mg/kg, iv or 3 mg/kg, po. The data set is classed as ADME, organism-based. Particulars: in vivo, read-out: beta t1/2 (converted).
The target in data set [2] is T1, Peroxisome proliferator-activated receptor gamma (Homo sapiens, UniProt P37231).
T1 sequence (P37231 whole entry): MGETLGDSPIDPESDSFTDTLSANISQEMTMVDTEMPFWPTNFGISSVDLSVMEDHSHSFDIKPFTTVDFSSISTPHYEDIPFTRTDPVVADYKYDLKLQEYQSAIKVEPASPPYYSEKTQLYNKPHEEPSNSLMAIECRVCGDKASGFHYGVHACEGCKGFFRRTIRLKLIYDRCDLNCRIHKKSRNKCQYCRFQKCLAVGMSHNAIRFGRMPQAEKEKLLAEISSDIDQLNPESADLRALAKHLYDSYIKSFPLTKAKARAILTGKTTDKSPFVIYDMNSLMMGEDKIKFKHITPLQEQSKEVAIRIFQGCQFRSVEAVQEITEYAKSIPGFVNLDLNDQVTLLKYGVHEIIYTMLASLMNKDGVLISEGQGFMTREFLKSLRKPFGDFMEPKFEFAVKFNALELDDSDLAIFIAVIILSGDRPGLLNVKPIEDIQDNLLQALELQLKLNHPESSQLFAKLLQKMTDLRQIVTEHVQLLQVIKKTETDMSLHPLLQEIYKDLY
Briefly: Transactivation of GAL4-fused human PPARgamma expressed in African green monkey CV1 cells by luciferase reporter gene assay. The data set is classed as cell-based, CV-1. (Reporter assays use an easily measured gene product as a stand-in for the process of interest.)

Data set [3] in a line: Oral bioavailability in CD-1 mouse at 3 mg/kg. The class given is ADME, organism-based. To be noted: in vivo.
Data set [4] concerns the target T2, Peroxisome proliferator-activated receptor alpha (Homo sapiens, UniProt Q07869).
T2 sequence (Q07869 whole entry): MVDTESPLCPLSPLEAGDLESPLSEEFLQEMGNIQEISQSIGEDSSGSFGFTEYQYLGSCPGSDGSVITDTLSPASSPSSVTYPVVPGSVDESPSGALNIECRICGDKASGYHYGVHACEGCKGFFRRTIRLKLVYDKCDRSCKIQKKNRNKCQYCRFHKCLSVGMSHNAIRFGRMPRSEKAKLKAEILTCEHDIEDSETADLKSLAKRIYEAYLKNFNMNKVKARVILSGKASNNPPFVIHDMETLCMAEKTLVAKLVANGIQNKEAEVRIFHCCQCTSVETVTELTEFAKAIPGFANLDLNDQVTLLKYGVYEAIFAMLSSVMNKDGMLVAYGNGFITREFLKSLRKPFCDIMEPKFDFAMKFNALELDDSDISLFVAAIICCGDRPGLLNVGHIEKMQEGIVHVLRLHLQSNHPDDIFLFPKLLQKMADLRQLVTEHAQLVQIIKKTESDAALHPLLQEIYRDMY
Briefly: Transactivation of GAL4-fused human PPARalpha expressed in African green monkey CV1 cells by luciferase reporter gene assay. The class given is cell-based, CV-1.

Data set [5] is described as follows: AUC (0 to infinity) in CD-1 mouse at 1 mg/kg, iv or 3 mg/kg, po. Particulars: in vivo. The data set is classed as ADME, organism-based.
Another data set concerns the target hERG (KCNH2) (Homo sapiens, UniProt Q12809). Put plainly: Inhibition of human ERG expressed in HEK293 cells at 10 uM by semi-automatic patch clamp assay relative to control. The class given is cell-based. To be noted: HEK293 cells that express hERG. (In general: The patch-clamp technique gives a direct electrical read-out from membranes.)
For data set [6], the target named is Voltage-gated inwardly rectifying potassium channel KCNH2 (Homo sapiens, UniProt Q12809). Put plainly: Inhibition of human ERG expressed in HEK293 cells by semi-automatic patch clamp assay. The class given is cell-based.
Voltage-gated inwardly rectifying potassium channel KCNH2, sequence (Q12809 whole entry): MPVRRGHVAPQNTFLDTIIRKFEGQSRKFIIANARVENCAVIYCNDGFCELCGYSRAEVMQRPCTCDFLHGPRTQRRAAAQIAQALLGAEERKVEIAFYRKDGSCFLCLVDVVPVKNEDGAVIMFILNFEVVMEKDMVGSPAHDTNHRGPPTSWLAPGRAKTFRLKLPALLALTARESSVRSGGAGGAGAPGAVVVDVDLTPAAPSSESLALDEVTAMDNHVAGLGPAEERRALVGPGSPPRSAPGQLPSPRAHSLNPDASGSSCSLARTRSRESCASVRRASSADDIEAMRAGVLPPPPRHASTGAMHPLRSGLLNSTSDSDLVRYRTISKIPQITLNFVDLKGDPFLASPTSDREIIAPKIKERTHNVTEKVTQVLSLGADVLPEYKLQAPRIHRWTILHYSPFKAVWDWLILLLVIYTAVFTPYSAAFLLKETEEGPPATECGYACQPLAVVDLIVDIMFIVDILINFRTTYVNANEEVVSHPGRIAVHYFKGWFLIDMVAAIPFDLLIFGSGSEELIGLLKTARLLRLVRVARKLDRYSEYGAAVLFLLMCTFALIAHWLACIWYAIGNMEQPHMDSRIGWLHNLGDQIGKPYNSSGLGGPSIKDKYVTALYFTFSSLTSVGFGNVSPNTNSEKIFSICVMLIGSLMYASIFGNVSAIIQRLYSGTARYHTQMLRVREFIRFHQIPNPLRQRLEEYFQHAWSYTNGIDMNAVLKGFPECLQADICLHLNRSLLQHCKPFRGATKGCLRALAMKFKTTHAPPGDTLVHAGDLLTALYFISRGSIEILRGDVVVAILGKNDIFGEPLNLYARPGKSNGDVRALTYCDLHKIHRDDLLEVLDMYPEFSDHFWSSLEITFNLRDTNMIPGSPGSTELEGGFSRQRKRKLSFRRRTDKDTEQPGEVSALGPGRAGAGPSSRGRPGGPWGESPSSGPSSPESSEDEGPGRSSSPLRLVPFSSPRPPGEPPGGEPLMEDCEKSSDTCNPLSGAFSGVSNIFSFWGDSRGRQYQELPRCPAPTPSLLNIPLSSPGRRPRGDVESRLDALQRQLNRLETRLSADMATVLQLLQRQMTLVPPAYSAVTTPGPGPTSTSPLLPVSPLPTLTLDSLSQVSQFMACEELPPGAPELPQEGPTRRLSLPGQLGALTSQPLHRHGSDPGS

hERG (KCNH2), sequence (Q12809 whole entry): as above

One may read the EC50 as the concentration at which the effect is half-maximal. For orientation: bioavailability means dose-corrected exposure relative to a reference, in per cent. In general, AUC(0-inf) refers to total exposure, with the tail of the curve extrapolated. With `C[C@H](CCCOc1ccccc1Cn1c(Cl)cnc1-c1ccc(C(F)(F)F)cc1)CC(=O)O`, in data set [1], the half-life is 3.5 h. Also, the EC50 in data set [2] and in data set [4] was greater than 100 µM each time. This molecule showed a bioavailability in data set [3] of 100%. The AUC(0-inf) in data set [5] was 3880 ng·h/mL.

Usually inhibition stands for how much of the control response was suppressed. On to `CN(Cc1ccccc1OCCCCCC(=O)O)C(=O)c1ccc(-c2ccco2)cc1`, for which, at hERG (KCNH2), the inhibition at 10 µM is less than 15%.

The IC50 is the point on the concentration scale where inhibition reaches its midpoint. Regarding `Cc1cnc(-c2ccc(OC(F)(F)F)cc2)n1Cc1ccccc1OCCC[C@@H](C)CC(=O)O`, the IC50 in data set [6] was found to be 10 µM.

As for `C[C@H](CCCOc1ccccc1Cn1c(C(F)(F)F)cnc1-c1ccc(C(F)(F)F)cc1)CC(=O)O`, the half-life in data set [1] was 5.8 h. Besides, the EC50 in data set [2] and in data set [4] was greater than 100 µM each time. Besides, the bioavailability in data set [3] is 70%. The molecule also returned an AUC(0-inf) in data set [5] of 6960 ng·h/mL. Further, the inhibition at 10 µM on hERG (KCNH2) worked out at 5.7%.

Consider `C/C(=C\COc1ccccc1Cc1sc(C)nc1-c1ccc2oc(C)cc2c1)CCC(=O)O`, for which at 10 µM the inhibition at hERG (KCNH2) was 14%.

The molecule `Cc1cnc(-c2ccc(C#N)cc2)n1Cc1ccccc1OCCC[C@@H](C)CC(=O)O` gave an inhibition at 10 µM against hERG (KCNH2) of 15%.

Take `Cc1nc(-c2cc(F)c(-c3ccco3)c(F)c2)c(Cc2ccccc2OCCC[C@@H](C)CC(=O)O)s1`: the inhibition at 10 µM against hERG (KCNH2) was determined as 4%.

In the case of `C[C@H](CCCOc1ccccc1Cn1c(C(F)(F)F)cnc1-c1ccc(C#N)cc1)CC(=O)O`, the EC50 in data set [2] and in data set [4] was greater than 100 µM throughout. The AUC(0-inf) in data set [5] was 14700 ng·h/mL. For the same molecule, 10 µM produced 4% inhibition at hERG (KCNH2).

Regarding `C/C(=C\COc1ccccc1Cc1c(C)cnn1-c1ccc(C(F)(F)F)cc1)CCC(=O)O`, at hERG (KCNH2), testing at 10 µM gave an inhibition of 4%.

In turn, `Cc1cnc(-c2ccc(-c3ccco3)cc2)n1Cc1ccccc1OCCCCCC(=O)O` displayed an IC50 in data set [6] of 5.5 µM.

`Cc1cc2cc(-c3ncc(C)n3Cc3ccccc3OCCCCCC(=O)O)ccc2o1` came in with an inhibition at 10 µM against hERG (KCNH2) of 51%.
